In US20210227869A1, “Formula with a specific beta-lactoglobulin peptide” (N.V. Nutricia, priority 2018, published 2021):

Assays:
[1] = system: cow's milk-specific T-cell line TCL C; experiment: T-cell proliferation assay; assay type: cell-based, human; settings: synthetic peptide, SI≥2 considered positive, FIG. 2
Procedure: (§1) Synthetic peptides were obtained from JPT technologies. Only peptides containing at least 9 AAs were taken into account, as this is the minimal size for binding to MHC class II molecules and subsequent T-cell recognition (Holland et al, Front Immunol 2013 Jul. 1; 4:172.) Synthetic peptides (JPT technologies) identical to the peptides identified in all batches of the HP of example 1 were dissolved in dimethylsulfoxide (Sigma Aldrich) at a concentration of 5.3 mM. The peptides were tested on cow's milk-specific T-cell lines (TCLs) from three different donors. The peptides were tested on cow's milk protein-specific T-cell lines (TCLs) from three infant donors, diagnosed with cow's milk protein allergy. […] Proliferation was determined as described previously (Ruiter et al, Clin Exp Allergy 2006, 36(3):303-310). Stimulation indexes (Sls, ratio between proliferation of allergen/peptide-stimulated and non-stimulated T cells) were calculated and a SI≥2 was considered positive.
(§2) To confirm that the peptides identified in HP were recognized by T cells, synthetic peptides identical to these identified peptides were tested on cow's milk-specific human TCLs. As there was a considered overlap between the identified peptides, five peptides were tested (Table 7) that were identified in all batches and differed with more than 9A from each other. All tested peptides were able to induce proliferation (FIG. 2). […] This was also seen with the in silico prediction data (data not shown). […] As peptide LIV . . . […] SLL (AA #1-32) did, the region containing AA #28-32 (DISLL) was essential for the response of TCL A. Unexpectedly, TCL C recognized peptide LIV . . . AAS (AA #1-27), while the longer peptide containing the same sequence with 5 additional AAs, LIV . . .

[2] = system: cow's milk-specific T-cell line TCL A; experiment: T-cell proliferation assay; assay type: cell-based, human; settings: synthetic peptide, SI≥2 considered positive, FIG. 2
Procedure: as §1, §2

“LIVTQTMKGLDIQKVAGTWYSLAMAASDISLL (beta-lactoglobulin peptide fragment) [SEQ ID NO: 11]” was tested, and the “T cell proliferation (stimulation index)” value [1] was “not able to induce a proliferative response”.

With “LIVTQTMKGLDIQKVAGTWYSLAMAAS (beta-lactoglobulin peptide fragment) [SEQ ID NO: 9]” the “T cell proliferation (stimulation index)” value [1] was “recognized” and the “T cell proliferation (stimulation index)” value [2] was “not able to induce proliferation”.
